Measured values taken from patent publication US20220008368A1, “METHODS AND COMPOSITIONS RELATED TO TARGETING FFAR2 AND ILC3 POPULATIONS FOR THE TREATMENT OF A GASTROINTESTINAL DISEASE” (PRESIDENT AND FELLOWS OF HARVARD COLLEGE, priority 2018, published 2022).
Where two headings read alike, the source gives them in different places. *1 amine or outer side, *2 acyl side, *3 side chain or, on linkers, in order; H or OH if unused. Where a SMILES comes first, the peptide text is derived from it. Bridges are numbered along the chain shown (N, C = ends). [ ]: non-standard residue; d: D form. X1 = CC(=O)NC(C(=O)OC(C(C)C)C(N[*:1])C(=O)[*:2])C(O)C(C)C; PhLac = O=C(O)[CH](O)Cc1ccccc1; NMeT = CN[CH](C(=O)O)[CH](C)O; NMeA = CN[CH](C)C(=O)O; NMeDha = C=C(NC)C(=O)O

Legend:
sorted colonic ILC3s [1] = experiment: Flow analysis of intracellular signaling (AKT, p38, ERK, STAT3 phosphorylation) in sorted colonic ILC3s from WT mice; format: cell-based, mouse
Procedure: For analysis of intracellular signaling in ILC3s (Ibiza et al., 2016), sorted colonic ILC3s were rested for 2 hours in RPMI at 37° C.
AKT and STAT3 inhibition. Sorted colonic ILC3s were rested for 2 hours in RPMI at 37° C. For analysis of STAT3 phosphorylation, cells were incubated with […] AKT inhibitor VIII (VIII, Sigma-Aldrich) (Ibiza et al., 2016) or vehicle as a control (DMSO) for 1h at 37° C. before stimulation with the Ffar2 agonist (10 μM/ml dissolved in water, pH 7.4). To determine Il22 expression levels, cells were incubated with 10 μM AKT inhibitor VIII, 10 μM STAT3 inhibitor VI (S3I, Sigma-Aldrich) (Ibiza et al., 2016) or vehicle during overnight stimulation with Ffar2 agonist at 37° C.

sorted colonic ILC3s [2] = experiment: Il22 mRNA expression in sorted colonic ILC3s (qRT-PCR); format: cell-based, mouse; conditions: for Il22 expression upon Ffar2 activation with the Ffar2 agonist: overnight with Ffar2 agonist, AKT inhibitor VIII 10 μM, STAT3 inhibitor 10 μM
Procedure: RNA isolation and real-time quantitative PCR (qRT-PCR). For analysis of sorted colonic immune cell populations including ILC subsets and colonic ILC3s, RNA was isolated using the RNeasy Micro Kit (Qiagen) or RNeasy Mini Kit (Qiagen) according to the manufacturer's protocol. For analysis of colonic epithelial cells or colon tissues, cells or tissues were homogenized directly into Qiazol (Qiagen), and RNA was isolated via chloroform extraction. The quantity and quality of RNA was determined using a NanoDrop (Thermo Scientific). […] Quantitative real-time PCR was carried out on cDNA with SYBR FAST Universal qPCR Master Mix (KAPA Biosystems). Reactions were run on a Stratagene Mx3005P machine (Agilent Technologies). The expression of individual genes was normalized to housekeeping gene β-actin expression on the base of the ΔΔCt algorithm. Some results are shown as a fold induction relative to expression levels in colonic epithelial cells as indicated. AKT and STAT3 inhibition.

Ffar2 = target: T1, Ffar2 (Homo sapiens, UniProt O15552); conditions: cited from earlier work; for agonism of Ffar2 among SCFAs: compared among acetate, propionate and butyrate
T1 sequence (O15552 1-330): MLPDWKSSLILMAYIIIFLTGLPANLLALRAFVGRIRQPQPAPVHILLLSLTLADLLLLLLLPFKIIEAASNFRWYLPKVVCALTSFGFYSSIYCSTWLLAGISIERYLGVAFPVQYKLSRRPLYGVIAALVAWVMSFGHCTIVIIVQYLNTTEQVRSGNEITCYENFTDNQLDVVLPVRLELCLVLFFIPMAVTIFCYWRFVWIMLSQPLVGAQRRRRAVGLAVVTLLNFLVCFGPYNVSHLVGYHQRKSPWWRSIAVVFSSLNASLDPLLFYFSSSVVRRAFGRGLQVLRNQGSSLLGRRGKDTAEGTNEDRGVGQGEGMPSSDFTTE

sorted colonic ILC3s [3] = experiment: In vitro BrdU incorporation in sorted colonic ILC3s; format: cell-based, mouse; conditions: acetate 10 mM or propionate 10 mM with BrdU 10 μM overnight
colonic ILC3s [4] = conditions: WT mice, drinking water 2 weeks; acetate 150 mM, propionate 150 mM, butyrate 100 mM; control sodium chloride
Procedure: SCFA intervention. […] WT mice received sodium chloride (150 mM). […] Drinking water solutions were freshly prepared and changed every 5 days.
Isolation of colonic epithelial cells and immune cells. Colons were dissected and fat and blood vessels were removed. Colons were cut open longitudinally and washed with PBS to remove feces and debris, then incubated in PBS containing 5 mM EDTA, 0.145 mg/ml Dithiothreitol (Sigma-Aldrich), 3% FBS and 1% penicillin/streptomycin (P/S) for 15 min at 37° C. for 2 cycles. After being vortexed for 15s, the dissociated cells were collected as colonic epithelial cells. For the isolation of lamina propria immune cells, the remaining colonic tissues were washed twice in PBS, cut into 1 mm in length, and digested in RPMI 1640 containing 0.5 mg/ml collagenase D (Roche), 0.01 mg/ml DNase I (Roche), and 0.5 mg/ml Dispase (Stem Cell Technologies) for 30 min at 37° C. on a shaking platform. The digested tissues were passed through 70 μm strainers after being vigorously vortexed for 15s. Then, colonic immune cells were collected and resuspended in PBS with 1% fetal bovine serum and 1% penicillin-streptomycin solution (Corning) for flow cytometry analysis, FACSAria sorting or RNA extraction.
Flow cytometry. Single-cell suspensions were stained with a combination of fluorescently conjugated monoclonal antibodies. CD16/32 antibody (93; BioLegend) was used to block the non-specific binding to Fc receptors before surface staining. Cells were stained with Fixable yellow dead cell stain kit (Invitrogen) for the detection of live/dead cells before staining of the cell surface. All antibodies were purchased from BioLegend unless otherwise specified. For surface marker staining, antibodies to the following mouse proteins were used: CD45 (30-F11), CD90.2 (53-2.1), lineage markers (17A2/RB6-8C5/RA3-6B2/Ter-119/M1/70), CCR6 (29-21.17), NKp46 (29A1.4), CD11b (M1/70), CD11c (N418), Gr-1 (RB6-8C5), MHC class II (M5/114.15.2), NK1.1 (PK136), KLRG1 (2F1), CD3c (145-2C11), CD4 (RM4.5). […]

colonic ILC3s [5] = experiment: Colonic RORγt+ ILC3s in germ-free WT mice fed Ffar2 agonist or sodium acetate; format: in vivo, mouse; conditions: Ffar2 agonist 700 μM or sodium acetate 150 mM in drinking water, 1-2 weeks
Procedure: GPR43 agonist. […] SCFA intervention. […] WT mice received sodium chloride (150 mM). […] Flow cytometry.

Peyer's patch ILC3s = conditions: cited from earlier work
C57BL/6 Rag2−/− mice = experiment: T cell-transfer colitis model; format: in vivo, mouse; conditions: Ffar2 agonist or sodium propionate for 6 weeks
Procedure: GPR43 agonist. […] SCFA intervention. […] WT mice received sodium chloride (150 mM). […] Histology. Colons were cleaned with PBS prior to fixation in 4% PFA and then processed by routine paraffin embedding, sectioning and H&E staining. Colitis scores were determined by a pathologist (J. N. G.), who was blinded to the experimental parameters. Each of the four histologic parameters was scored as absent (0), mild (1), moderate (2), or severe (3): mononuclear cell infiltration, polymorphonuclear cell infiltration, epithelial hyperplasia, and epithelial injury. The scores for the parameters were summed to generate the cumulative histologic colitis score as previously described^60, 61. For the DSS-induced model, cumulative histologic scores were also quantified as to the percentage involvement by the disease process: […] (3) 30-50%; (4) >50% and presented as histologic colitis scores^62 as follows: (cumulative score*involvement)+cumulative score. T cell-transfer colitis model. Splenic T cells (CD3^+CD4^+CD25^-CD45RB^hi) were sorted from C57BL/6J WT mice and injected i.p. into C57BL/6J Rag2^-/- mice (5×10^5 cells/mouse). […] Mice were monitored weekly for weight loss and morbidity for 6-8 weeks as per the protocol's experimental endpoint guidelines and sacrificed at the terminal time point of 6 weeks post injection of splenic […].

[6] = WT ILC3s, propionate 10 mM, 1 h

O=c1[nH]c2ccccc2n1C1CCN(Cc2ccc(-c3nc4cc5[nH]cnc5cc4nc3-c3ccccc3)cc2)CC1 [AKT inhibitor (VIII)]
STAT3 activation upon Ffar2 activation with the Ffar2 agonist (sorted colonic ILC3s [1]; AKT inhibitor VIII 1 h before stimulation with Ffar2 agonist): impaired
Il22 expression upon Ffar2 activation with the Ffar2 agonist (sorted colonic ILC3s [2]; PTX 500 ng/mL, YM-254890 1 mM): decreased 11-22, but to a lesser extent

Cc1ccc(S(=O)(=O)OCC(=O)Nc2ccc(C(=O)O)c(O)c2)cc1 [STAT3 inhibitor (S31)]
Il22 expression upon Ffar2 activation with the Ffar2 agonist (sorted colonic ILC3s [2]; PTX 500 ng/mL, YM-254890 1 mM): impaired
Il22 expression upon Ffar2 activation with the Ffar2 agonist (sorted colonic ILC3s [2]; PTX 500 ng/mL, YM-254890 1 mM, listed as STAT3 inhibitor): decreased

C=C1C(=O)NC(C)C(=O)N(C)C(C)C(=O)NC(C(OC(=O)C(NC(C)=O)C(O)C(C)C)C(C)C)C(=O)N(C)C(C(C)OC)C(=O)OC(C)C(NC(C)=O)C(=O)OC(Cc2ccccc2)C(=O)N1C (stereo not drawn) [YM-254890] (Ac-T[PhLac][NMeDha]A[NMeA][X1][NMeT](Me); ester 1-C; configuration not given here)
Il22 expression upon Ffar2 activation with the Ffar2 agonist (sorted colonic ILC3s [2]; PTX 500 ng/mL, YM-254890 1 mM): abolished
Il22 expression upon activation with propionate (sorted colonic ILC3s [2]; propionate 10 mM overnight, PTX 500 ng/mL, YM-254890 1 mM, ERK inhibitor 10 μM): decreased IL22 transcripts to a lesser extent

CC(=O)[O-].[Na+] [sodium acetate]
agonism of Ffar2 among SCFAs (Ffar2): far more potent activators of Ffar2
percentage of BrdU+ ILC3s (sorted colonic ILC3s [3]): increased
colonic ILC3 frequency and number (colonic ILC3s [4]): increased
colonic ILC3 numbers (colonic ILC3s [5]): increased
Il22 mRNA expression in sorted ILC3s cultured with ligand (sorted colonic ILC3s [2]): did not alter

CCCC(=O)[O-].[Na+] [sodium butyrate]
colonic ILC3 frequency and number (colonic ILC3s [4]): did not change
effect on Peyer's patch ILC3s (Peyer's patch ILC3s): suppress

CCC(=O)[O-].[Na+] [sodium propionate]
potency for Ffar2 compared with the synthetic Ffar2 agonist (Ffar2): lower potency
agonism of Ffar2 among SCFAs (Ffar2): far more potent activators of Ffar2
percentage of BrdU+ ILC3s (sorted colonic ILC3s [3]): did not
colonic ILC3 frequency and number (colonic ILC3s [4]): increased
colitis (histologic colitis score) (C57BL/6 Rag2−/− mice): ameliorated colitis similar to the effect of sodium propionate
phosphorylation of AKT, p38, ERK and STAT3 (sorted colonic ILC3s [1]; WT ILC3s, propionate 10 mM, 30 min): did not induce
pSTAT3+ ILC3s (sorted colonic ILC3s [1]; [6]): did increase
share of ILC3s that were pSTAT3+ (sorted colonic ILC3s [1]; [6]): 1%-1.5%
percentage of pERK+ ILC3s (sorted colonic ILC3s [1]; WT ILC3s, propionate 10 mM, 1 h compared with shorter time): comparable
pERK level (sorted colonic ILC3s [1]; WT ILC3s, propionate 10 mM, 1 h versus 30 min): did induce a higher pERK
Il22 mRNA expression in sorted ILC3s cultured with ligand (sorted colonic ILC3s [2]; acetate 10 mM, propionate 10 mM or Ffar2 agonist 10 mM): to a lesser extent, propionate increased
